# Test results reported in patent publication US11993574B2, “Pyrazole and imidazole compounds for inhibition of IL-17 and RORgamma” (REATA PHARMACEUTICALS, INC., priority 2018, dated 2024).
# Tests used:
# Assay type in all cases: cell-based
# [1] = biological target: T1, Human RAR-related Orphan Receptor Gamma (RORγ) (Homo sapiens, UniProt P51449); assay: RORγ assay (GAL4-RORγ hybrid luciferase reporter, Indigo Biosciences); conditions: inverse-agonist activity, GAL4-RORγ reporter cells, 23 hours
# T1 sequence (P51449 269-508 limits assumed): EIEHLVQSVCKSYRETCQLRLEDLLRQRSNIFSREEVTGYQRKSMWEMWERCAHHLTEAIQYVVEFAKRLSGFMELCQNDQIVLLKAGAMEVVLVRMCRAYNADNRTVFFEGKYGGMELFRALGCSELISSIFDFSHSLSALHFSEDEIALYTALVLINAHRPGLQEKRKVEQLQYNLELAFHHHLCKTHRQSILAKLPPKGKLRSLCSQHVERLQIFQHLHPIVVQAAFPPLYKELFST
# Source text: B. RORγ Assay and Cell Viability
# The RORγ assay system was purchased from Indigo Biosciences. This nuclear receptor assay utilizes a human cell line that has been engineered to express a hybrid form of the Human RAR-related Orphan Receptor Gamma (RORγ) at high levels. The N-terminal DNA binding domain (DBD) of the native RORγ receptor was substituted with the yeast GAL4-DBD to generate the GAL4-RORγ hybrid nuclear receptor. The reporter cell line is transfected with a plasmid that encodes the beetle luciferase gene under the control of the GAL4 upstream activating sequence (UAS). GAL4 binds to the UAS and increases transcription of downstream target genes. The GAL4-RORγ hybrid is constitutively active; therefore, the principle application of this reporter assay system is to screen test compounds to quantify inverse-agonist activities against human RORγ. Because the ligand binding domain (LBD) of RORγ is identical to the LBD of RORγt, this assay is an accurate surrogate for evaluating activity of experimental ligands against RORγt. To assess the RORγ inverse-agonist activity of the test compounds, reporter cells were plated in white 96-well plates in triplicate and were treated with DMSO (vehicle) or test compound (concentration ranges of 7.8-2000 nM) at 37° C. with 5% CO2 in a humidified atmosphere for 23 hours. After this incubation, luciferin was added to the wells and luciferase activity was determined by measuring the luminescence signal using a BMG Pherastar microplate reader. Viability was determined using the Live Cell Multiplex Assay (Indigo Biosciences). Values from test compound samples were normalized to those from DMSO-treated samples. Data were analyzed using GraphPad Prism version 6.00 for Windows (GraphPad Software, La Jolla Calif. USA). A non-linear regression analysis with log (inhibitor) vs. normalized response using a variable slope was applied to fit the data and determine the IC50 values for inhibition of RORγ and cell viability. Inhibition that is closely correlated with reduced viability is considered to be non-specific.
# [2] = test system: Nrf2 transcription factor; assay: AREc32 luciferase reporter assay; conditions: Homo sapiens; AREc32 cells, 19 hours; concentration required to increase GST ARE luciferase reporter activity by 2-fold; read-out: NRF2 ARE 2-Fold (EC2×)
# Source text: A. AREc32 Luciferase Reporter Assay
# The AREc32 luciferase reporter assay allows for quantitative assessment of the endogenous activity of the Nrt2 transcription factor in cultured mammalian cells. AREc32 cells are derived from MCF-7 human breast carcinoma cells that were stably transfected with a reporter construct that contains the firefly luciferase gene located downstream of eight copies of the rat GSTA2 antioxidant response element (ARE) sequence (Wang et al., 2006; Concept Life Sciences Integrated Discovery and Development Services Ltd (CLSIDDS)). Active Nrf2 binds to the ARE sequences and increases expression of the firefly luciferase gene. To assess the Nrf2-activating potential of the test compounds, AREc32 cells were plated in black […] plates at a density of 20,000 cells per well in triplicate in DMEM+10% FBS+0.8 mg/mL Geneticin and incubated at 37° C. with 5% CO2 in a humidified atmosphere. The next day, cells were treated with DMSO (vehicle) or test compound (concentration ranges of 0.4-200 nM or 3.9-2000 nM) for 19 hours. Luciferase activity was determined using the ONE-Glo Luciferase assay (Promega). The luminescence signal was measured on a BMG Pherastar microplate reader. The mean luminescence value from test compound-treated wells was normalized to that from DMSO-treated wells and was represented as fold-induction. Data were analyzed using GraphPad Prism version 6.00 for Windows, GraphPad Software, La Jolla Calif. USA. A non-linear regression curve with log (agonist) vs. response using a variable slope was used to fit the data. Where applicable, a maximum threshold value of 50-fold over DMSO was set. EC2× values were interpolated from the curve. EC2× corresponds to the concentration of test compound required to increase GST ARE Luciferase reporter activity by 2-fold.
# [3] = test system: IL-17A; assay: IL-17 release from differentiated primary human T-cells (IL-17A HTRF assay); conditions: primary human CD4+ T cells differentiated into Th17 cells, 45-hour incubation, IL-17A in supernatant; read-out: hIL17 IC50
# Experimental: C. IL-17 Release from Differentiated Primary Human T-Cells and Cell Viability
# Primary human cryopreserved CD4+ T Cells (Lonza) were thawed according to the manufacturer's recommendations and plated either in Lymphocyte Growth Medium-3 (LGM-3) or X-VIVO 20 media (Lonza) in 96-well tissue culture plates at a density of ˜2×10^5 cells per well, and allowed to recover for approximately 4 hours at 37° C. with 5% CO2 in a humidified atmosphere. After the recovery step, DMSO (vehicle) or test compound at doses ranging from 2 to 500 nM or 4 to 1000 nM in a three-fold dilution series was added to the cells. Three replicate wells were tested for each treatment condition. Final DMSO concentration in each well was 0.1%. Immediately after treatment, CD4+ T cells were activated by adding Dynabeads Human T-Activator CD3/CD28 (Life Technologies; bead-to-cell ratio of 1:2.5) and differentiated into Th17 cells by adding a mixture of the following cytokines: transforming growth factor-β (TGF-β, 5 ng/mL), IL-6 (20 ng/mL), IL-23 (20 ng/mL), and IL-1β (10 ng/mL). Undifferentiated control cells received only cytokine IL-2 (50 ng/mL). All human recombinant cytokines were purchased from R&D Systems. Following a 45-hour incubation at 37° C. with 5% CO2 in a humidified atmosphere, the plates were centrifuged for 3 minutes at 250×g, and half of the supernatant was transferred to anew plate to be used in the IL-17A assay (see below). Cell viability was assessed in the original plate using the CyQuant Direct Assay (Life Technologies). CyQuant reagent (an amount equal to 10% of remaining media volume) was added to the wells, and the plates were then incubated at 37° C. for 75 min. Fluorescence was read on a SpectraMax M2e spectrophotometer at 480 nm (excitation) and 535 nm (emission) wavelengths. CyQuant values from test compound samples were normalized to those from DMSO-treated samples. The concentration of IL-17A in the supernatant was measured using the Homogeneous Time-Resolved Fluorescence (HTRF) assay (Cisbio Bioassays) according to the manufacturer's protocol. The assay was performed at room temperature in low volume, solid white 384-well plates (Greiner Bio-One). Samples and standards (serially-diluted human recombinant IL-17A (0 to 5,000 pg/mL concentration range; Cisbio Bioassays) were incubated with the anti-human IL-17A antibody conjugates (the HTRF donor and acceptor pair) for 16 hours and fluorescence was measured using a Pherastar FS microplate reader (BMG Labtech) in the HTRF mode (excitation at 337 nm and emission at 665 nm and 620 nm). IL-17A levels were assessed in duplicate aliquots of supernatant from each well resulting in a total of six readings per test condition. The 665 nm/620 nm signal ratio was calculated and the concentration of IL-17A in each sample was determined by interpolation from the standard curve. The amount of IL-17A from test compound treated samples were normalized to that of the vehicle-treated samples, set to 100%. Data were analyzed using GraphPad Prism (GraphPad Software, La Jolla California USA). Concentrations of test compound were transformed by taking the logarithm of each concentration used. The IC50 values for compound-mediated reduction in IL-17A levels and cell viability were determined by non-linear regression analysis using the log(inhibitor) vs. normalized response with variable slope equation. Inhibition that is closely correlated with reduced viability is considered to be non-specific.
SMILES,IC50 [1],IC50 [3],EC (2-fold) [2]
C[C@H]1C(=O)C(C#N)=C[C@@]2(C)c3c(c(-c4ccccc4)nn3-c3ccc(-c4ccccc4)cc3)CC[C@H]12 [T21],80 nM,19 nM,0.161 µM
C[C@H]1C(=O)C(C#N)=C[C@@]2(C)c3nn(-c4ccc(-c5ccccc5)cc4)c(-c4ccccc4)c3CC[C@H]12 [T22],175 nM,56 nM,1.05 µM
C[C@H]1C(=O)C(C#N)=C[C@@]2(C)c3c(c(-c4ccccc4)nn3-c3cccc4ccccc34)CC[C@H]12 [T23],118 nM,89 nM,0.19 µM
C[C@H]1C(=O)C(C#N)=C[C@@]2(C)c3nn(-c4cccc5ccccc45)c(-c4ccccc4)c3CC[C@H]12 [T24],284 nM,30 nM,0.827 µM
CC(C)c1ccc(-n2nc(-c3ccccc3)c3c2[C@]2(C)C=C(C#N)C(=O)[C@H](C)[C@H]2CC3)cc1 [T25],92 nM,28 nM,0.149 µM
CC(C)c1ccc(-n2nc3c(c2-c2ccccc2)CC[C@@H]2[C@@H](C)C(=O)C(C#N)=C[C@@]32C)cc1 [T26],104 nM,61 nM,0.944 µM
C[C@H]1C(=O)C(C#N)=C[C@@]2(C)c3c(c(-c4ccccc4)nn3C3CCOCC3)CC[C@H]12 [T27],132 nM,61 nM,0.204 µM
C[C@H]1C(=O)C(C#N)=C[C@@]2(C)c3nn(C4CCOCC4)c(-c4ccccc4)c3CC[C@H]12 [T28],90 nM,136 nM,0.719 µM
Cc1ccc(-n2nc(-c3ccccc3)c3c2[C@]2(C)C=C(C#N)C(=O)[C@H](C)[C@H]2CC3)nc1 [T31],91 nM,100 nM,0.298 µM
Cc1ccc(-n2nc(-c3ccccc3)c3c2[C@]2(C)C=C(C#N)C(=O)[C@H](C)[C@H]2CC3)cn1 [T32],124 nM,170 nM,0.258 µM
C[C@H]1C(=O)C(C#N)=C[C@@]2(C)c3c(c(-c4ccccc4)nn3-c3cccc(-c4cccnc4)c3)CC[C@H]12 [T34],87 nM,87 nM,0.245 µM
C[C@H]1C(=O)C(C#N)=C[C@@]2(C)c3c(c(-c4ccccc4)nn3-c3cccc(-c4ccccc4)c3)CC[C@H]12 [T35],129 nM,58 nM,0.328 µM
C[C@H]1C(=O)C(C#N)=C[C@@]2(C)c3c(c(-c4ccccc4)nn3-c3ccc(-c4ccccc4F)cc3)CC[C@H]12 [T36],87 nM,22 nM,0.233 µM
C[C@H]1C(=O)C(C#N)=C[C@@]2(C)c3c(c(-c4ccccc4)nn3-c3ccc(-c4cccc(F)c4)cc3)CC[C@H]12 [T40],80 nM,23 nM,0.238 µM
Cc1ccc(-c2ccc(-n3nc(-c4ccccc4)c4c3[C@]3(C)C=C(C#N)C(=O)[C@H](C)[C@H]3CC4)cc2)cc1 [T41],83 nM,25 nM,0.249 µM
Cc1ccccc1-c1ccc(-n2nc(-c3ccccc3)c3c2[C@]2(C)C=C(C#N)C(=O)[C@H](C)[C@H]2CC3)cc1 [T44],83 nM,41 nM,0.242 µM

# Stronger by IC50 [1], values ahead:
IC50 [1],IC50 [3],SMILES,EC (2-fold) [2]
32 nM,24 nM,C[C@H]1C(=O)C(C#N)=C[C@@]2(C)c3c(c(-c4ccccc4)nn3-c3ccc(-c4cccnc4)cc3)CC[C@H]12 [T37],0.167 µM
46 nM,37 nM,Cc1noc(C)c1-c1ccc(-n2nc(-c3ccccc3)c3c2[C@]2(C)C=C(C#N)C(=O)[C@H](C)[C@H]2CC3)cc1 [T38],0.215 µM
25 nM,31 nM,C[C@H]1C(=O)C(C#N)=C[C@@]2(C)c3c(c(-c4ccccc4)nn3-c3ccc(-c4ccncc4)cc3)CC[C@H]12 [T39],0.139 µM
33 nM,35 nM,C[C@H]1C(=O)C(C#N)=C[C@@]2(C)c3c(c(-c4ccccc4)nn3-c3ccc(-c4ccc(CO)cc4)cc3)CC[C@H]12 [T42],0.13 µM
53 nM,43 nM,C[C@H]1C(=O)C(C#N)=C[C@@]2(C)c3c(c(-c4ccccc4)nn3-c3ccc(-c4ccccc4CO)cc3)CC[C@H]12 [T43],0.174 µM
44 nM,22 nM,C[C@H]1C(=O)C(C#N)=C[C@@]2(C)c3c(c(-c4ccccc4)nn3-c3ccc(-c4cccc(CO)c4)cc3)CC[C@H]12 [T45],0.147 µM
65 nM,20 nM,COc1ccc(-c2ccc(-n3nc(-c4ccccc4)c4c3[C@]3(C)C=C(C#N)C(=O)[C@H](C)[C@H]3CC4)cc2)cc1 [T46],0.219 µM
